This passage reports Ratio EC50 and EC50 results from ChEMBL document CHEMBL2413005, “A novel necroptosis inhibitor-necrostatin-21 and its SAR study” (Bioorg Med Chem Lett, 2013).

Molecules are shown by their SMILES. Bounds are passed on as bounds.

The target in one test is Mitogen-activated protein kinase 10/Receptor-interacting serine/threonine-protein kinase 1 (Homo sapiens) (UniProt P53779+Q13546). The test is described as follows: Ratio of necrostatin-21 EC50 to compound EC50 for RIP1/JNK2 (unknown origin)-mediated necrosis. The test is classed as protein assay.
Mitogen-activated protein kinase 10/Receptor-interacting serine/threonine-protein kinase 1 (Homo sapiens), sequence (P53779 whole entry, looked up): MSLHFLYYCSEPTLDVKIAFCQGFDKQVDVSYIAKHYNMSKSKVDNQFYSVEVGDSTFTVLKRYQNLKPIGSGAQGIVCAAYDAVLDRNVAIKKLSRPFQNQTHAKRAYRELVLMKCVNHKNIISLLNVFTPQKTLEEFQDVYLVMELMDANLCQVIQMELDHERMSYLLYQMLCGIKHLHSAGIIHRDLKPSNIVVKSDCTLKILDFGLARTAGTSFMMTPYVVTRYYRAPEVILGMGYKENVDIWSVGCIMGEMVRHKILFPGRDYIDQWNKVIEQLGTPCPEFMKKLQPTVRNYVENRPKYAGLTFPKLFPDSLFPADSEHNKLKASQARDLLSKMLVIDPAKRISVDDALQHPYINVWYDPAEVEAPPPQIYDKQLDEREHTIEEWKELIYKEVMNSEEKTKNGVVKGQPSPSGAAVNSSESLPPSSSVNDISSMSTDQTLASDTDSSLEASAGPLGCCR
Mitogen-activated protein kinase 10/Receptor-interacting serine/threonine-protein kinase 1 (Homo sapiens), sequence (Q13546 whole entry, looked up): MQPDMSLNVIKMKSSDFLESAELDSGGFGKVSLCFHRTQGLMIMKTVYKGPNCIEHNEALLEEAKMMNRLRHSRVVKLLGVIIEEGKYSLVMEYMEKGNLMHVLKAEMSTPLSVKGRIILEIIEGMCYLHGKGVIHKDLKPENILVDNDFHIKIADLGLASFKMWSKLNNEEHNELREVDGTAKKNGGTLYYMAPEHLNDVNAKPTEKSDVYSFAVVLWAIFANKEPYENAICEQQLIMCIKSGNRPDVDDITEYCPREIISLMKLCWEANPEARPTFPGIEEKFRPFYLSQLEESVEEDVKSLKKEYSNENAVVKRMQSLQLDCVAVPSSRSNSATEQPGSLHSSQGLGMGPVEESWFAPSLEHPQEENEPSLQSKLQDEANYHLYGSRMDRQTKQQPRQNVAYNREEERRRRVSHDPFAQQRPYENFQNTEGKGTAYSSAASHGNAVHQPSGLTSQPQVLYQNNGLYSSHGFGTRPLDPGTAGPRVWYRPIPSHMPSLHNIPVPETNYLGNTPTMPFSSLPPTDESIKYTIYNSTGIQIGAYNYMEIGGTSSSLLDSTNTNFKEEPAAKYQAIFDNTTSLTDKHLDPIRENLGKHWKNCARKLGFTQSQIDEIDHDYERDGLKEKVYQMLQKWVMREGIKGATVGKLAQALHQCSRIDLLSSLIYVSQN
For the compound `COc1cc2[nH]c3c(c2cc1C#N)CCc1c[nH]nc1-3`, the Ratio EC50 is above 35.

Target in another test: not listed separately
The experiment in a line: Inhibition of RIP1/JNK2 (unknown origin)-mediated necrosis.
Compound `COc1cc2[nH]c3c(c2cc1OC)CCc1c[nH]nc1-3` came in with an EC50 of 47 nM.
On to `Fc1ccc2[nH]c3c(c2c1)CCc1c[nH]nc1-3`, for which the EC50 was 140 nM. This EC50 is about 3-fold higher than that of the compound before.
With `FC(F)(F)c1ccc2c3c([nH]c2c1)-c1n[nH]cc1CC3`, the EC50 was found to be 250 nM.
As to `O=[N+]([O-])c1cccc2c3c([nH]c12)-c1n[nH]cc1CC3`, the concentration giving a half-maximal response (EC50) stood at 6320 nM.
Compound `Clc1ccc2c3c([nH]c2c1)-c1n[nH]cc1CC3` showed a 50% effective concentration (EC50) of 250 nM. Compared with the last compound, the EC50 is about 25-fold lower.
In turn, `CC1Cc2c([nH]c3ccccc23)-c2n[nH]cc21` (configuration not stated) showed a concentration for a half-maximal effect (EC50) of 810 nM.
`N#Cc1ccc2[nH]c3c(c2c1)CCc1c[nH]nc1-3` had an EC50 of 80 nM.
In the case of `c1ccc2c3c([nH]c2c1)-c1n[nH]cc1C3`, the half-maximal effective concentration (EC50) was determined as 5790 nM.
`Clc1cccc2[nH]c3c(c12)CCc1c[nH]nc1-3` came in with a concentration giving a half-maximal response (EC50) of 670 nM.
As for `c1[nH]nc2c1CCc1c-2[nH]c2cc3c(cc12)OCCO3`, the 50% effective concentration (EC50) came out at 2640 nM.
Compound `c1[nH]nc2c1CCc1c-2[nH]c2cc3c(cc12)OCO3` returned an EC50 of 150 nM.
Take `c1ccc2c(c1)[nH]c1c2ccc2c[nH]nc21`: the EC50 is 3620 nM.
`COc1cccc2[nH]c3c(c12)CCc1c[nH]nc1-3` registered a half-maximal effective concentration (EC50) of 1450 nM.
Regarding `COc1ccc2c3c([nH]c2c1)-c1n[nH]cc1CC3`, the concentration for a half-maximal effect (EC50) came to 100 nM. This EC50 is about 14-fold lower than that of the compound before.
`Cc1cccc2c3c([nH]c12)-c1n[nH]cc1CC3` returned an EC50 of 760 nM.
On the same count and under the same terms, the figure for `CCc1ccc2[nH]c3c(c2c1)CCc1c[nH]nc1-3` is 780 nM; for `N#Cc1ccc2c3c([nH]c2c1)-c1n[nH]cc1CC3` it is 110 nM.
Still for that read-out and setting: the figure for `COc1cc(OC)c2c3c([nH]c2c1)-c1n[nH]cc1CC3` is 110 nM; for `Fc1cccc2c3c([nH]c12)-c1n[nH]cc1CC3` it is 860 nM.
Compound `COc1cc2[nH]c3c(c2cc1C#N)CCc1c[nH]nc1-3` registered a concentration giving a half-maximal response (EC50) of 14 nM.
On the same count and under the same terms, the result for `COc1ccc2[nH]c3c(c2c1)CCc1c[nH]nc1-3` reads 170 nM.

As usually defined, the EC50 is the concentration needed to bring the measured effect to its halfway point. A lower EC50 goes with greater potency.
